Data set [1] relates to DYRK1A. The data set can be described thus: Tau phosphorylation (T212) in the hippocampus of DYRK1A transgenic mouse after oral administration. Format: in vivo. Here is the method: This mouse model has 50% higher expression of DYRK1A compared with a normal mouse, and increased Tau phosphorylation at T212 in the hippocampus has been well documented ([Ryoo et al., 2007]). Indeed, this phenomenon was also confirmed in our experiment.
Fig. 7. […] (A) Hippocampuses from normal and DYRK1A-overexpressing C57BL/6 mice (n=5 for each) were harvested, and the phosphorylation of Tau was analyzed by western blotting with anti-phosphorylated-Tau (at residue T212; p-Tau) and anti-Tau antibodies. α-Tubulin was also analyzed as a loading control. (B) The phosphorylated and total Tau proteins in panel A were quantified, and the mean amount of each protein was calculated. […] Total cell lysates were prepared and subjected to western blotting with the indicated antibodies. α-Tubulin was also analyzed as a loading control. (D) The phosphorylated and total Tau proteins in panel C were quantified, and the mean amount of each protein across the animals was calculated. Relative ratios of phosphorylated Tau to total Tau were calculated by setting the value from DYRK1A mice that had been treated with DMSO as 100%. […]
DYRK1A transgenic mice with three copies of the human DYRK1A gene were maintained as described previously ([Ahn et al., 2006]). […] The protein concentration was determined using the Bradford protein assay (Bio-Rad). […]

For data set [2], the target named is T1, DYRK4 (Homo sapiens, UniProt Q9NR20).
T1 construct: purchased Life Technologies (Kinase Profiler service)
T1 sequence (Q9NR20 1-520): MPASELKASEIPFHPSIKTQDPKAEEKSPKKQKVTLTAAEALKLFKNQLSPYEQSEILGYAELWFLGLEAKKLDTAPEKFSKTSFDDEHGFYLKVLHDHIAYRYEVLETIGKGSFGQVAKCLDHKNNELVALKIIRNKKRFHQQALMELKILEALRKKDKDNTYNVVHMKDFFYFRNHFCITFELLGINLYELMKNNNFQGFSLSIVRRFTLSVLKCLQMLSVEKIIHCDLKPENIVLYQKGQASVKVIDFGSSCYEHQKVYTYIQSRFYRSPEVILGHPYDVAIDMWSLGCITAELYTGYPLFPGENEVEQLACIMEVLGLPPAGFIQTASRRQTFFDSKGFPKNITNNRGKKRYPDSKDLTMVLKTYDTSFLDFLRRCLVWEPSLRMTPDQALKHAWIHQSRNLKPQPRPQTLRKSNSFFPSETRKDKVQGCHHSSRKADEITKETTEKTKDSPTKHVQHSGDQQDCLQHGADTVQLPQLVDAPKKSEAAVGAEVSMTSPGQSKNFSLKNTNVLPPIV
The data set can be described thus: In vitro kinase assay, recombinant human DYRK4 (Life Technologies). In kind it is biochemical.

Data set [3] concerns the target T2, DYRK3 (Homo sapiens, UniProt O43781).
T2 construct: purchased Life Technologies (Kinase Profiler service)
T2 sequence (O43781 1-588): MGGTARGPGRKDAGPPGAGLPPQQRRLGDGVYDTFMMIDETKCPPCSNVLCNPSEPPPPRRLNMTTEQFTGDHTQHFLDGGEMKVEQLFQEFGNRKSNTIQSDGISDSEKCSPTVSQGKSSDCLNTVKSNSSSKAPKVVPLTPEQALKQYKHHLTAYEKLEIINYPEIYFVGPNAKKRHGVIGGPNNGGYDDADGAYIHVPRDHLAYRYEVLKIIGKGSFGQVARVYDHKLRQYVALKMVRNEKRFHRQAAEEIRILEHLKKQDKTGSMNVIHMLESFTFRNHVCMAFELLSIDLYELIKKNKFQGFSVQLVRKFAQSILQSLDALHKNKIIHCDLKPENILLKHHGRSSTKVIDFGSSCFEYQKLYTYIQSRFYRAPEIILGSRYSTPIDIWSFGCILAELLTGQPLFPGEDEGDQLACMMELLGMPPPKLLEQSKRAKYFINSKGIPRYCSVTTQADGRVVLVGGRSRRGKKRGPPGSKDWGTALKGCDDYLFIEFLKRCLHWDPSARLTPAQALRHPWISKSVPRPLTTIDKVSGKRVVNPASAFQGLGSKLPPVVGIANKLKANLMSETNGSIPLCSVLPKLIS
The data set can be described thus: In vitro kinase assay, recombinant human DYRK3 (Life Technologies). Format: biochemical.

Data set [4] relates to calcineurin-NFAT signaling. The data set can be described thus: Flag-NFATc1 localization by immunofluorescence in 293T cells. In kind it is cell-based. The settings on record: 10 μM, 293T cells with overexpressed DYRK1A, ionomycin 5 μM. The text has this: Flag-NFATc1 remained predominantly in the cytosol when expressed in 293T cells (Mock, Fig. 5A). Upon the addition of the calcium ionophore ionomycin (IM), Flag-NFATc1 was translocated into the nucleus (Fig. 5A, IM) as a result of NFATc1 dephosphorylation by activated calcineurin. Overexpression of DYRK1A relocalized Flag-NFATc1 into the cytoplasm, even in the presence of ionomycin owing to the opposing action of DYRK1A on NFATc1 phosphorylation, which is consistent with its negative regulatory role in the calcineurin-NFAT pathway (Fig. 5A, DYRK1A+IM).
Fig. 5. […] Firefly luciferase activities were measured using One-Glo reagents. Luciferase activity in the sample with reporter plasmid alone was set to 1, and the relative luciferase activities were calculated. Means±s.d. were determined from two independent experiments.
293T cells were seeded into 8-well chambered coverslips (Ibidi) and transfected with a plasmid expressing Flag-NFATc1. […] Cells were fixed with 4% paraformaldehyde in PBS for 10 min at room temperature, followed by permeabilization with 0.1% Triton X-100, and then subjected to immunofluorescence staining with anti-Flag (1:500) antibody for 2 h. Cells were then washed with cold PBS three times for 3 min each, incubated with Alexa-Fluor-488-conjugated anti-rabbit IgG (1:800) (Invitrogen) at room temperature for 1 h and then examined under a fluorescence microscope.

In general, IC50 refers to the midpoint of a concentration-inhibition curve. For `O=C(O)c1ccc2c(c1)nc(Nc1cccc(Cl)c1)c1ccncc12` [CX-4945], in data set [1] (DYRK1A-overexpressing C57BL/6 mice, 75 mg/kg oral, 30 min), the “phosphorylation of Tau (T212) in hippocampus” value is on record as “remarkably decreased”. The blood-brain barrier penetration entry in data set [1] (inferred from hippocampal Tau phosphorylation after oral 75 mg/kg) is listed as “efficiently penetrates the blood-brain barrier”. In addition, the IC50 in data set [2] stood at 1500 nM; in data set [3] it was 18 nM. Moreover, in data set [4], the “nuclear translocation of Flag-NFATc1” value was “effectively induced the nuclear translocation”.

The record behind these values is PMC5007978, “A chemical with proven clinical safety rescues Down-syndrome-related phenotypes in through DYRK1A inhibition” (Disease Models & Mechanisms, 2016).
